According to PubChem BioAssay (NCI):
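All cell lines were grown in 96-well plates and treated with compound for 48 hours. TGI: concentration producing complete growth inhibition.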

Experiments:
Experiment in all cases: NCI anticancer screen, dose series, 48 h
786-0 renal = system: 786-0 renal
A549 NSCLC = system: A549 NSCLC
ACHN renal = system: ACHN renal
CAKI-1 renal = system: CAKI-1 renal
CCRF-CEM leukemia = system: CCRF-CEM leukemia
COLO 205 colon = system: COLO 205 colon
DLD-1 colon = system: DLD-1 colon
DMS 273 small cell lung = system: DMS 273 small cell lung
HCC-2998 colon = system: HCC-2998 colon
HCT-15 colon = system: HCT-15 colon
HL-60(TB) leukemia = system: HL-60(TB) leukemia
HOP-62 NSCLC = system: HOP-62 NSCLC
HOP-92 NSCLC = system: HOP-92 NSCLC
HT29 colon = system: HT29 colon
IGROV1 ovarian = system: IGROV1 ovarian
K-562 leukemia = system: K-562 leukemia
KM12 colon = system: KM12 colon
KM20L2 colon = system: KM20L2 colon
LOX IMVI melanoma = system: LOX IMVI melanoma
LXFL 529 NSCLC = system: LXFL 529 NSCLC
M14 melanoma = system: M14 melanoma
M19-MEL melanoma = system: M19-MEL melanoma
MALME-3M melanoma = system: MALME-3M melanoma
MOLT-4 leukemia = system: MOLT-4 leukemia
NCI-H226 lung = system: NCI-H226 lung
NCI-H23 lung = system: NCI-H23 lung
NCI-H460 lung = system: NCI-H460 lung
NCI-H522 lung = system: NCI-H522 lung
OVCAR-3 ovarian = system: OVCAR-3 ovarian
OVCAR-4 ovarian = system: OVCAR-4 ovarian
OVCAR-5 ovarian = system: OVCAR-5 ovarian
OVCAR-8 ovarian = system: OVCAR-8 ovarian
RPMI-8226 leukemia = system: RPMI-8226 leukemia
RXF 393 renal = system: RXF 393 renal
SF-268 CNS = system: SF-268 CNS
SF-295 CNS = system: SF-295 CNS
SF-539 CNS = system: SF-539 CNS
SK-MEL-2 melanoma = system: SK-MEL-2 melanoma
SK-MEL-28 melanoma = system: SK-MEL-28 melanoma
SK-OV-3 ovarian = system: SK-OV-3 ovarian
SN12C renal = system: SN12C renal
SNB-19 CNS = system: SNB-19 CNS
SNB-75 CNS = system: SNB-75 CNS
SR leukemia = system: SR leukemia
SW-620 colon = system: SW-620 colon
TK-10 renal = system: TK-10 renal
U251 CNS = system: U251 CNS
UACC-257 melanoma = system: UACC-257 melanoma
UO-31 renal = system: UO-31 renal
A498 renal = system: A498 renal
DMS 114 small cell lung = system: DMS 114 small cell lung
EKVX NSCLC = system: EKVX NSCLC
HCT-116 colon = system: HCT-116 colon
SNB-78 CNS = system: SNB-78 CNS
UACC-62 melanoma = system: UACC-62 melanoma
HOP-18 NSCLC = system: HOP-18 NSCLC
SK-MEL-5 melanoma = system: SK-MEL-5 melanoma
XF 498 CNS = system: XF 498 CNS

`C/C(=N/O)C1CC=C(S(=O)(=O)c2ccccc2)C1` (stereo not given) was tested, and the TGI (786-0 renal) was greater than 100 µM, the TGI (A549 NSCLC) was greater than 100 µM and the TGI (ACHN renal) was greater than 100 µM. It also gave a TGI (CAKI-1 renal) greater than 100 µM, a TGI (CCRF-CEM leukemia) greater than 100 µM and a TGI (COLO 205 colon) greater than 100 µM. It also gave a TGI (DLD-1 colon) greater than 100 µM, a TGI (DMS 273 small cell lung) greater than 100 µM and a TGI (HCC-2998 colon) greater than 100 µM. It also gave a TGI (HCT-15 colon) greater than 100 µM, a TGI (HL-60(TB) leukemia) greater than 100 µM and a TGI (HOP-62 NSCLC) greater than 100 µM. For the same molecule, the TGI (HOP-92 NSCLC) was greater than 100 µM, the TGI (HT29 colon) was greater than 100 µM and the TGI (IGROV1 ovarian) was greater than 100 µM. The TGI (K-562 leukemia) was greater than 100 µM, the TGI (KM12 colon) was greater than 100 µM and the TGI (KM20L2 colon) was greater than 100 µM. It also gave a TGI (LOX IMVI melanoma) greater than 100 µM, a TGI (LXFL 529 NSCLC) greater than 100 µM and a TGI (M14 melanoma) greater than 100 µM. The TGI (M19-MEL melanoma) was greater than 100 µM, the TGI (MALME-3M melanoma) was greater than 100 µM and the TGI (MOLT-4 leukemia) was greater than 100 µM. For the same molecule, the TGI (NCI-H226 lung) was greater than 100 µM, the TGI (NCI-H23 lung) was greater than 100 µM and the TGI (NCI-H460 lung) was greater than 100 µM. For the same molecule, the TGI (NCI-H522 lung) was greater than 100 µM, the TGI (OVCAR-3 ovarian) was greater than 100 µM and the TGI (OVCAR-4 ovarian) was greater than 100 µM. The TGI (OVCAR-5 ovarian) was greater than 100 µM, the TGI (OVCAR-8 ovarian) was greater than 100 µM and the TGI (RPMI-8226 leukemia) was greater than 100 µM. The TGI (RXF 393 renal) was greater than 100 µM, the TGI (SF-268 CNS) was greater than 100 µM and the TGI (SF-295 CNS) was greater than 100 µM. For the same molecule, the TGI (SF-539 CNS) was greater than 100 µM, the TGI (SK-MEL-2 melanoma) was greater than 100 µM and the TGI (SK-MEL-28 melanoma) was greater than 100 µM. For the same molecule, the TGI (SK-OV-3 ovarian) was greater than 100 µM, the TGI (SN12C renal) was greater than 100 µM and the TGI (SNB-19 CNS) was greater than 100 µM. For the same molecule, the TGI (SNB-75 CNS) was greater than 100 µM, the TGI (SR leukemia) was greater than 100 µM and the TGI (SW-620 colon) was greater than 100 µM. For the same molecule, the TGI (TK-10 renal) was greater than 100 µM, the TGI (U251 CNS) was greater than 100 µM and the TGI (UACC-257 melanoma) was greater than 100 µM. It also gave a TGI (UO-31 renal) greater than 100 µM.
Work on `CN(C)C(=S)Nc1nnc(NC23CC4CC(CC(C4)C2)C3)s1` yielded a TGI (786-0 renal) of 38.2 µM, a TGI (A498 renal) of 37.3 µM and a TGI (A549 NSCLC) of 36.5 µM. The TGI (ACHN renal) was 64 µM, the TGI (CAKI-1 renal) was 68.8 µM and the TGI (CCRF-CEM leukemia) was 84.9 µM. It also gave a TGI (COLO 205 colon) of 44.1 µM, a TGI (DMS 114 small cell lung) of 63.1 µM and a TGI (DMS 273 small cell lung) of 55.3 µM. The TGI (EKVX NSCLC) was 59.7 µM, the TGI (HCC-2998 colon) was 35.5 µM and the TGI (HCT-116 colon) was 33 µM. The TGI (HCT-15 colon) was 28.8 µM, the TGI (HL-60(TB) leukemia) was 31.9 µM and the TGI (HOP-62 NSCLC) was 33.9 µM. The TGI (HT29 colon) was 19.2 µM, the TGI (IGROV1 ovarian) was 72.8 µM and the TGI (K-562 leukemia) was greater than 100 µM. It also gave a TGI (KM12 colon) of 46 µM, a TGI (KM20L2 colon) of 24.8 µM and a TGI (LOX IMVI melanoma) of 33.8 µM. The TGI (M14 melanoma) was 29.7 µM, the TGI (M19-MEL melanoma) was 43.6 µM and the TGI (MALME-3M melanoma) was 53.3 µM. The TGI (MOLT-4 leukemia) was greater than 100 µM, the TGI (NCI-H226 lung) was 38.4 µM and the TGI (NCI-H460 lung) was 26.8 µM. For the same molecule, the TGI (NCI-H522 lung) was 34.9 µM, the TGI (OVCAR-3 ovarian) was 46.3 µM and the TGI (OVCAR-4 ovarian) was 32.4 µM. The TGI (OVCAR-8 ovarian) was greater than 100 µM, the TGI (RPMI-8226 leukemia) was 51.1 µM and the TGI (RXF 393 renal) was 34.1 µM. For the same molecule, the TGI (SF-268 CNS) was 48.5 µM, the TGI (SF-295 CNS) was 30.7 µM and the TGI (SK-MEL-2 melanoma) was 44.7 µM. The TGI (SK-MEL-28 melanoma) was 31.3 µM, the TGI (SK-OV-3 ovarian) was 80.1 µM and the TGI (SN12C renal) was 38.1 µM. It also gave a TGI (SNB-19 CNS) of 41.2 µM, a TGI (SNB-78 CNS) greater than 100 µM and a TGI (SR leukemia) of 57.9 µM. The TGI (SW-620 colon) was 38.3 µM, the TGI (TK-10 renal) was greater than 100 µM and the TGI (U251 CNS) was 25.3 µM. It also gave a TGI (UACC-257 melanoma) of 32.5 µM, a TGI (UACC-62 melanoma) of 32.6 µM and a TGI (UO-31 renal) of 25.2 µM.
In the case of `CC(C)(O)[C@@H]1CCC(C)([C@H]2[C@@H](O)CC3(C)C4CC(OC5OC(CO)C(O)C(O)C5O)C5C(C)(C)[C@@H](OC6OCC(O)C(O)C6O)CC[C@@]56C[C@@]46CC[C@]23C)O1` (stereo not given in full), the TGI (786-0 renal) is reported as greater than 100 µM, the TGI (A549 NSCLC) is reported as greater than 100 µM and the TGI (ACHN renal) is reported as greater than 100 µM. For the same molecule, the TGI (CCRF-CEM leukemia) was greater than 100 µM, the TGI (COLO 205 colon) was greater than 100 µM and the TGI (DLD-1 colon) was greater than 100 µM. For the same molecule, the TGI (DMS 114 small cell lung) was greater than 100 µM, the TGI (DMS 273 small cell lung) was greater than 100 µM and the TGI (EKVX NSCLC) was greater than 100 µM. The TGI (HCC-2998 colon) was greater than 100 µM, the TGI (HCT-116 colon) was greater than 100 µM and the TGI (HCT-15 colon) was greater than 100 µM. For the same molecule, the TGI (HL-60(TB) leukemia) was greater than 100 µM, the TGI (HOP-18 NSCLC) was greater than 100 µM and the TGI (HOP-92 NSCLC) was greater than 100 µM. For the same molecule, the TGI (HT29 colon) was greater than 100 µM, the TGI (IGROV1 ovarian) was greater than 100 µM and the TGI (K-562 leukemia) was greater than 100 µM. It also gave a TGI (KM12 colon) greater than 100 µM, a TGI (KM20L2 colon) greater than 100 µM and a TGI (LOX IMVI melanoma) greater than 100 µM. The TGI (LXFL 529 NSCLC) was greater than 100 µM, the TGI (M14 melanoma) was greater than 100 µM and the TGI (M19-MEL melanoma) was greater than 100 µM. For the same molecule, the TGI (MALME-3M melanoma) was greater than 100 µM, the TGI (MOLT-4 leukemia) was greater than 100 µM and the TGI (NCI-H226 lung) was greater than 100 µM. It also gave a TGI (NCI-H23 lung) greater than 100 µM, a TGI (NCI-H460 lung) greater than 100 µM and a TGI (NCI-H522 lung) greater than 100 µM. It also gave a TGI (OVCAR-3 ovarian) greater than 100 µM, a TGI (OVCAR-4 ovarian) greater than 100 µM and a TGI (OVCAR-5 ovarian) greater than 100 µM. It also gave a TGI (OVCAR-8 ovarian) greater than 100 µM, a TGI (RPMI-8226 leukemia) greater than 100 µM and a TGI (RXF 393 renal) greater than 100 µM. For the same molecule, the TGI (SF-268 CNS) was greater than 100 µM, the TGI (SF-295 CNS) was greater than 100 µM and the TGI (SF-539 CNS) was greater than 100 µM. It also gave a TGI (SK-MEL-2 melanoma) greater than 100 µM, a TGI (SK-MEL-28 melanoma) greater than 100 µM and a TGI (SK-MEL-5 melanoma) greater than 100 µM. For the same molecule, the TGI (SK-OV-3 ovarian) was greater than 100 µM, the TGI (SN12C renal) was greater than 100 µM and the TGI (SNB-19 CNS) was greater than 100 µM. It also gave a TGI (SNB-75 CNS) greater than 100 µM, a TGI (SNB-78 CNS) greater than 100 µM and a TGI (SR leukemia) greater than 100 µM. It also gave a TGI (SW-620 colon) greater than 100 µM, a TGI (TK-10 renal) greater than 100 µM and a TGI (U251 CNS) greater than 100 µM. The TGI (UACC-257 melanoma) was greater than 100 µM, the TGI (UACC-62 melanoma) was greater than 100 µM and the TGI (UO-31 renal) was greater than 100 µM. The TGI (XF 498 CNS) was greater than 100 µM.
Molecule `Cc1c2cc[n+](COC(=O)c3ccccc3)cc2c(C)c2c1[nH]c1ccccc12` has a TGI (A498 renal) of 2.48 µM, a TGI (CCRF-CEM leukemia) of 2.91 µM and a TGI (HL-60(TB) leukemia) of 2.72 µM. For the same molecule, the TGI (HOP-18 NSCLC) was 1.93 µM, the TGI (K-562 leukemia) was 1.52 µM and the TGI (MOLT-4 leukemia) was 1.59 µM. For the same molecule, the TGI (OVCAR-5 ovarian) was 2.39 µM, the TGI (OVCAR-8 ovarian) was 2.11 µM and the TGI (RPMI-8226 leukemia) was 2.92 µM. The TGI (SF-539 CNS) was 1.48 µM, the TGI (SN12C renal) was 1.79 µM and the TGI (SNB-19 CNS) was 52.6 µM. For the same molecule, the TGI (UO-31 renal) was 4.82 µM.
